# Data published in article PMC5218480 (PLoS ONE, 2017).
# System: MV-4-11 cells
# Test: Gene expression microarray analysis (Affymetrix PrimeView) and GSEA
# Type: cell-based, human
# Set-up: RFU PODN (11730768_x_at) / Fold change /veh PODN (11730768_x_at) / RFU LINC00158 (11744669_a_at) / Fold change /veh LINC00158 (11744669_a_at) / RFU DUSP10 (11751237_a_at) / Fold change /veh DUSP10 (11751237_a_at) / RFU ID3 (11757404_x_at) / Fold change /veh ID3 (11757404_x_at) / RFU PLEKHG5 (11737974_s_at) / Fold change /veh PLEKHG5 (11737974_s_at) / RFU LRRC4B (11730491_at) / Fold change /veh LRRC4B (11730491_at) / RFU GIMAP4 (11747438_a_at) / Fold change /veh GIMAP4 (11747438_a_at) / RFU KRT8 (11758183_x_at) / Fold change /veh KRT8 (11758183_x_at) / RFU CNN1 (11734310_a_at) / Fold change /veh CNN1 (11734310_a_at) / RFU VPS37D (11726825_at) / Fold change /veh VPS37D (11726825_at) / RFU C10orf10 (11716522_x_at) / Fold change /veh C10orf10 (11716522_x_at) / RFU KIR2DL2 /// KIR2DL4 /// KIR2DL5A /// KIR2DL5B /// KIR2DS1 /// KIR2DS2 /// KIR2DS3 /// KIR2DS4 /// KIR3DL3 /// KIR3DL3 /// KIR3DS1 (11738374_at) / Fold change /veh KIR2DL2 /// KIR2DL4 /// KIR2DL5A /// KIR2DL5B /// KIR2DS1 /// KIR2DS2 /// KIR2DS3 /// KIR2DS4 /// KIR3DL3 /// KIR3DL3 /// KIR3DS1 (11738374_at) / RFU C1QL1 (11718748_at) / Fold change /veh C1QL1 (11718748_at) / RFU TMPRSS4 (11747572_a_at) / Fold change /veh TMPRSS4 (11747572_a_at) / RFU HAMP (11756126_x_at) / Fold change /veh HAMP (11756126_x_at) / RFU RNFT2 (11725882_a_at) / Fold change /veh RNFT2 (11725882_a_at) / RFU NR4A2 (11747474_a_at) / Fold change /veh NR4A2 (11747474_a_at) / RFU ABCC12 (11746883_a_at) / Fold change /veh ABCC12 (11746883_a_at) / RFU TMEM136 (11760407_x_at) / Fold change /veh TMEM136 (11760407_x_at) / RFU CLDN22 /// WWC2 (11732394_at) / Fold change /veh CLDN22 /// WWC2 (11732394_at) / RFU HLA-DPB1 (11760878_x_at) / Fold change /veh HLA-DPB1 (11760878_x_at) / RFU SPINT1 (11716480_a_at) / Fold change /veh SPINT1 (11716480_a_at) / RFU GAP43 (11754022_s_at) / Fold change /veh GAP43 (11754022_s_at) / RFU A4GNT (11735810_at) / Fold change /veh A4GNT (11735810_at) / RFU PRB3 (11715151_x_at) / Fold change /veh PRB3 (11715151_x_at) / RFU TUBB4B (11761932_at) / Fold change /veh TUBB4B (11761932_at) / RFU CAPN14 (11732068_a_at) / Fold change /veh CAPN14 (11732068_a_at) / RFU TMCC2 (11721928_a_at) / Fold change /veh TMCC2 (11721928_a_at) / RFU IRGQ (11745062_a_at) / Fold change /veh IRGQ (11745062_a_at) / RFU FAM174B (11720279_a_at) / Fold change /veh FAM174B (11720279_a_at) / RFU TMPRSS4 (11748680_a_at) / Fold change /veh TMPRSS4 (11748680_a_at) / RFU FAM212B (11763350_a_at) / Fold change /veh FAM212B (11763350_a_at) / RFU PLEKHG5 (11743358_a_at) / Fold change /veh PLEKHG5 (11743358_a_at) / RFU ZSCAN30 (11745921_a_at) / Fold change /veh ZSCAN30 (11745921_a_at) / RFU CMKLR1 (11741424_a_at) / Fold change /veh CMKLR1 (11741424_a_at) / RFU LOC101060620 /// MAPK8IP1 (11723275_at) / Fold change /veh LOC101060620 /// MAPK8IP1 (11723275_at) / RFU SPTSSB (11747773_x_at) / Fold change /veh SPTSSB (11747773_x_at) / RFU PRSS12 (11739890_at) / Fold change /veh PRSS12 (11739890_at) / RFU BIN1 (11741810_x_at) / Fold change /veh BIN1 (11741810_x_at) / RFU WNT11 (11732464_a_at) / Fold change /veh WNT11 (11732464_a_at) / RFU C10orf10 (11716521_a_at) / Fold change /veh C10orf10 (11716521_a_at) / RFU C5orf56 (11738089_at) / Fold change /veh C5orf56 (11738089_at) / RFU CYB561 (11721691_x_at) / Fold change /veh CYB561 (11721691_x_at) / RFU ANKRD19P (11752326_a_at) / Fold change /veh ANKRD19P (11752326_a_at) / RFU OR2T12 /// OR2T33 /// OR2T8 (11738714_s_at) / Fold change /veh OR2T12 /// OR2T33 /// OR2T8 (11738714_s_at) / RFU VCAN (11748164_a_at) / Fold change /veh VCAN (11748164_a_at) / RFU JSRP1 (11732532_at) / Fold change /veh JSRP1 (11732532_at) / RFU KRTAP10-11 (11738290_x_at) / Fold change /veh KRTAP10-11 (11738290_x_at) / RFU MYO3A (11730013_a_at) / Fold change /veh MYO3A (11730013_a_at) / RFU EBF3 (11725865_a_at) / Fold change /veh EBF3 (11725865_a_at) / RFU CAMK2N1 (11719241_x_at) / Fold change /veh CAMK2N1 (11719241_x_at) / RFU C5orf56 (11738088_a_at) / Fold change /veh C5orf56 (11738088_a_at) / RFU OLFML3 (11715873_a_at) / Fold change /veh OLFML3 (11715873_a_at) / RFU LOC100653217 /// NTM (11731650_a_at) / Fold change /veh LOC100653217 /// NTM (11731650_a_at) / RFU MAPK11 (11762145_a_at) / Fold change /veh MAPK11 (11762145_a_at) / RFU FIZ1 (11724087_x_at) / Fold change /veh FIZ1 (11724087_x_at) / RFU OASL (11726364_x_at) / Fold change /veh OASL (11726364_x_at) / RFU SOX15 (11748057_x_at) / Fold change /veh SOX15 (11748057_x_at) / RFU CD79A (11719716_a_at) / Fold change /veh CD79A (11719716_a_at) / RFU HIST1H1D (11736915_at) / Fold change /veh HIST1H1D (11736915_at) / RFU CASKIN2 (11723855_a_at) / Fold change /veh CASKIN2 (11723855_a_at) / RFU LOC730098 (11760151_x_at) / Fold change /veh LOC730098 (11760151_x_at) / RFU OR4N2 (11742367_at) / Fold change /veh OR4N2 (11742367_at) / RFU PRRT2 (11749266_a_at) / Fold change /veh PRRT2 (11749266_a_at) / RFU SNX32 (11753110_a_at) / Fold change /veh SNX32 (11753110_a_at) / RFU CDHR5 (11726645_a_at) / Fold change /veh CDHR5 (11726645_a_at) / RFU RCAN1 (11760418_a_at) / Fold change /veh RCAN1 (11760418_a_at) / RFU FAM167A (11723789_a_at) / Fold change /veh FAM167A (11723789_a_at) / RFU FAM26E (11764081_at) / Fold change /veh FAM26E (11764081_at) / RFU ISYNA1 (11749810_s_at) / Fold change /veh ISYNA1 (11749810_s_at) / RFU ACY1 (11761880_at) / Fold change /veh ACY1 (11761880_at) / RFU 11764098_at / Fold change /veh 11764098_at / RFU SAMD14 (11745864_x_at) / Fold change /veh SAMD14 (11745864_x_at) / RFU NPB (11741838_a_at) / Fold change /veh NPB (11741838_a_at) / RFU TMPRSS6 (11731388_a_at) / Fold change /veh TMPRSS6 (11731388_a_at) / RFU KRTAP10-2 (11738614_at) / Fold change /veh KRTAP10-2 (11738614_at) / RFU ARHGAP8 /// PRR5-ARHGAP8 (11727945_x_at) / Fold change /veh ARHGAP8 /// PRR5-ARHGAP8 (11727945_x_at) / RFU KRTAP5-7 /// NADSYN1 (11734609_at) / Fold change /veh KRTAP5-7 /// NADSYN1 (11734609_at) / RFU RASL12 (11751679_a_at) / Fold change /veh RASL12 (11751679_a_at) / RFU CDKN2B (11736163_a_at) / Fold change /veh CDKN2B (11736163_a_at) / RFU PRF1 (11729649_at) / Fold change /veh PRF1 (11729649_at) / RFU, ZNF638 /// ZNF638-IT1 / Fold change vs veh, ZNF638 /// ZNF638-IT1 / RFU, PANK3 / Fold change vs veh, PANK3 / RFU, SH3YL1 / Fold change vs veh, SH3YL1 / RFU, ZEB2 / Fold change vs veh, ZEB2 / RFU, NRIP1 / Fold change vs veh, NRIP1 / RFU, PTTG1IP / Fold change vs veh, PTTG1IP / RFU, CAPN2 / Fold change vs veh, CAPN2 / RFU, MED14 / Fold change vs veh, MED14 / RFU, SNORA58 / Fold change vs veh, SNORA58 / RFU, C1orf63 / Fold change vs veh, C1orf63 / RFU, LRRFIP1 / Fold change vs veh, LRRFIP1 / RFU, NDUFAF7 / Fold change vs veh, NDUFAF7 / RFU, SLC12A2 / Fold change vs veh, SLC12A2 / RFU, IBTK / Fold change vs veh, IBTK / RFU, ESF1 / Fold change vs veh, ESF1 / Fold change vs veh, TMEM50B / RFU, TAOK1 / Fold change vs veh, TAOK1 / RFU, ACBD3 / Fold change vs veh, ACBD3 / RFU, TMA16 / Fold change vs veh, TMA16 / RFU, RWDD3 / Fold change vs veh, RWDD3 / RFU, BCAT1 / Fold change vs veh, BCAT1 / RFU, EDEM3 / Fold change vs veh, EDEM3 / RFU, TMEM33 / Fold change vs veh, TMEM33 / RFU, WDR75 / Fold change vs veh, WDR75 / RFU, AHCTF1 / Fold change vs veh, AHCTF1 / RFU, TFRC / Fold change vs veh, TFRC / RFU, ZDHHC17 / Fold change vs veh, ZDHHC17 / RFU, NOM1 / Fold change vs veh, NOM1 / RFU, ARL8B / Fold change vs veh, ARL8B / RFU, ZBTB11 / Fold change vs veh, ZBTB11 / RFU, TAMM41 / Fold change vs veh, TAMM41 / RFU, KIAA1704 /// LOC100996395 / Fold change vs veh, KIAA1704 /// LOC100996395 / RFU, ING1 / Fold change vs veh, ING1 / RFU, TRMT61B / Fold change vs veh, TRMT61B / RFU, FUBP3 / Fold change vs veh, FUBP3 / RFU, TP53 / Fold change vs veh, TP53 / RFU, TNKS2 / Fold change vs veh, TNKS2 / RFU, ZFP14 / Fold change vs veh, ZFP14 / RFU, ACTR2 / Fold change vs veh, ACTR2 / RFU, PPP3R1 / Fold change vs veh, PPP3R1 / RFU, PIK3R1 / Fold change vs veh, PIK3R1 / RFU, HNRNPA1 / Fold change vs veh, HNRNPA1 / RFU, RNF170 / Fold change vs veh, RNF170 / RFU, ZNF28 / Fold change vs veh, ZNF28 / RFU, RNGTT / Fold change vs veh, RNGTT / RFU, OGT / Fold change vs veh, OGT / RFU, BRD1 / Fold change vs veh, BRD1 / RFU, MARS / Fold change vs veh, MARS / RFU, ZNF655 / Fold change vs veh, ZNF655 / RFU, FAHD1 / Fold change vs veh, FAHD1 / RFU, BDP1 / Fold change vs veh, BDP1 / RFU, LRRCC1 / Fold change vs veh, LRRCC1 / RFU, ARID1A / Fold change vs veh, ARID1A / RFU, ZNF146 / Fold change vs veh, ZNF146 / RFU, ZNF330 / Fold change vs veh, ZNF330 / RFU, GPN3 / Fold change vs veh, GPN3 / RFU, C9orf123 / Fold change vs veh, C9orf123 / RFU, N4BP2L2 / Fold change vs veh, N4BP2L2 / RFU, ARFIP1 / Fold change vs veh, ARFIP1 / RFU, FAM179B / Fold change vs veh, FAM179B / RFU, BCL10 / Fold change vs veh, BCL10 / RFU, UHRF1BP1L / Fold change vs veh, UHRF1BP1L / RFU, BET1 / Fold change vs veh, BET1 / RFU, CNOT2 / Fold change vs veh, CNOT2 / RFU, ZNF268 / Fold change vs veh, ZNF268 / Fold change vs veh, ZNF507 / RFU, DGCR2 / Fold change vs veh, DGCR2 / RFU, WDSUB1 / Fold change vs veh, WDSUB1 / Fold change vs veh, HSP90B1 /// MIR3652 / RFU, ADSS / Fold change vs veh, ADSS / RFU, GK / Fold change vs veh, GK / RFU, ZNF148 / Fold change vs veh, ZNF148 / RFU, TAF9 / Fold change vs veh, TAF9 / RFU, SLC1A5 / Fold change vs veh, SLC1A5 / RFU, SLMO2 / Fold change vs veh, SLMO2 / RFU, ABCC4 / Fold change vs veh, ABCC4 / RFU, LOC101060439 /// RAP1B / Fold change vs veh, LOC101060439 /// RAP1B / RFU, RFX7 / Fold change vs veh, RFX7 / RFU, GTPBP10 / Fold change vs veh, GTPBP10 / RFU, CNEP1R1 / Fold change vs veh, CNEP1R1 / RFU, BIVM-ERCC5 /// ERCC5 / Fold change vs veh, BIVM-ERCC5 /// ERCC5 / RFU, ILF3 / Fold change vs veh, ILF3 / RFU 11762660_at / Fold change /veh 11762660_at / RFU VCAN (11757783_s_at) / Fold change /veh VCAN (11757783_s_at) / RFU DDX43 (11728927_at) / Fold change /veh DDX43 (11728927_at) / RFU KRT8 (11758188_x_at) / Fold change /veh KRT8 (11758188_x_at) / RFU NKD1 (11759106_at) / Fold change /veh NKD1 (11759106_at) / RFU SRD5A1 (11742802_a_at) / Fold change /veh SRD5A1 (11742802_a_at) / RFU TPSAB1 /// TPSB2 (11721975_s_at) / Fold change /veh TPSAB1 /// TPSB2 (11721975_s_at) / RFU GSTM3 (11746129_a_at) / Fold change /veh GSTM3 (11746129_a_at) / RFU IL23R (11737362_x_at) / Fold change /veh IL23R (11737362_x_at) / RFU TMEM51 (11727254_a_at) / Fold change /veh TMEM51 (11727254_a_at) / RFU PIWIL2 (11732686_x_at) / Fold change /veh PIWIL2 (11732686_x_at) / RFU ORM1 (11744905_x_at) / Fold change /veh ORM1 (11744905_x_at) / RFU CCDC152 (11743942_at) / Fold change /veh CCDC152 (11743942_at) / RFU ECM1 (11717891_a_at) / Fold change /veh ECM1 (11717891_a_at) / RFU IL23R (11748794_a_at) / Fold change /veh IL23R (11748794_a_at) / RFU TNFAIP8L3 (11732012_x_at) / Fold change /veh TNFAIP8L3 (11732012_x_at) / RFU MBOAT4 (11741988_at) / Fold change /veh MBOAT4 (11741988_at) / RFU 11764193_at / Fold change /veh 11764193_at / RFU TMEM53 (11763286_at) / Fold change /veh TMEM53 (11763286_at) / RFU MAGEB2 (11727129_at) / Fold change /veh MAGEB2 (11727129_at) / RFU TMEM200A (11744735_a_at) / Fold change /veh TMEM200A (11744735_a_at) / RFU CCDC152 (11751479_a_at) / Fold change /veh CCDC152 (11751479_a_at) / RFU FAM211A (11726209_a_at) / Fold change /veh FAM211A (11726209_a_at) / RFU RGS16 (11746705_a_at) / Fold change /veh RGS16 (11746705_a_at) / RFU VCAN (11755009_s_at) / Fold change /veh VCAN (11755009_s_at) / RFU RHOB (11743442_s_at) / Fold change /veh RHOB (11743442_s_at) / RFU RGS16 (11720943_a_at) / Fold change /veh RGS16 (11720943_a_at) / RFU RGS16 (11720944_at) / Fold change /veh RGS16 (11720944_at) / RFU, VPS4B / Fold change vs veh, VPS4B / RFU, CREB1 / Fold change vs veh, CREB1 / RFU, DNAJC13 / Fold change vs veh, DNAJC13 / RFU, GNAQ / Fold change vs veh, GNAQ / RFU, CDK5R1 / Fold change vs veh, CDK5R1 / RFU, ZRANB3 / Fold change vs veh, ZRANB3 / RFU, CUL4A / Fold change vs veh, CUL4A / RFU, CCNY / Fold change vs veh, CCNY / RFU, UFL1 / Fold change vs veh, UFL1 / RFU, COG3 / Fold change vs veh, COG3 / RFU, DIAPH2 / Fold change vs veh, DIAPH2 / RFU, SKA2 / Fold change vs veh, SKA2 / RFU, AFF3 / Fold change vs veh, AFF3 / RFU, LMF1 / Fold change vs veh, LMF1 / RFU, IPO11 / Fold change vs veh, IPO11 / RFU, DFFB / Fold change vs veh, DFFB / RFU, FOXP1 / Fold change vs veh, FOXP1 / RFU, CARD8 / Fold change vs veh, CARD8 / RFU, STRN3 / Fold change vs veh, STRN3 / RFU, ADK / Fold change vs veh, ADK / RFU, RASSF2 / Fold change vs veh, RASSF2 / RFU, WIPF1 / Fold change vs veh, WIPF1 / RFU, LARP1B / Fold change vs veh, LARP1B / RFU, RASA1 / Fold change vs veh, RASA1 / RFU, RB1 / Fold change vs veh, RB1 / RFU, PPFIA1 / Fold change vs veh, PPFIA1 / RFU, MAT2A / Fold change vs veh, MAT2A / RFU, CCT5 / Fold change vs veh, CCT5 / RFU, WDR92 / Fold change vs veh, WDR92 / RFU, CUX1 / Fold change vs veh, CUX1 / RFU, TTC7A / Fold change vs veh, TTC7A / RFU, TMEM135 / Fold change vs veh, TMEM135 / RFU, DEPTOR / Fold change vs veh, DEPTOR / RFU, CPM / Fold change vs veh, CPM / RFU, DNAJB6 / Fold change vs veh, DNAJB6 / RFU, CACNA2D3 / Fold change vs veh, CACNA2D3 / RFU, DTX4 / Fold change vs veh, DTX4 / RFU, TFCP2 / Fold change vs veh, TFCP2 / RFU, GMCL1 /// GMCL1P1 / Fold change vs veh, GMCL1 /// GMCL1P1 / RFU, AEBP2 / Fold change vs veh, AEBP2 / RFU, SNHG1 /// SNORD22 /// SNORD25 /// SNORD26 /// SNORD27 /// SNORD28 /// SNORD29 /// SNORD31 / Fold change vs veh, SNHG1 /// SNORD22 /// SNORD25 /// SNORD26 /// SNORD27 /// SNORD28 /// SNORD29 /// SNORD31 / Fold change (Aza/veh), C12orf56 (ProbeSet 11735607_a_at) / Fold change (ACY-1035/veh), C12orf56 (ProbeSet 11735607_a_at) / Fold change (Aza/veh), FGFR1OP (ProbeSet 11751329_s_at) / Fold change (ACY-1035/veh), FGFR1OP (ProbeSet 11751329_s_at) / Fold change (Aza/veh), VPS36 (ProbeSet 11739960_a_at) / Fold change (ACY-1035/veh), VPS36 (ProbeSet 11739960_a_at) / RFU SYPL1 (11715823_x_at) / Fold change /veh SYPL1 (11715823_x_at) / RFU IGFBP7 (11715501_s_at) / Fold change /veh IGFBP7 (11715501_s_at) / RFU REEP3 (11722064_at) / Fold change /veh REEP3 (11722064_at) / RFU IGLL1 (11728026_x_at) / Fold change /veh IGLL1 (11728026_x_at): dose or concentration left out as unconfirmed
# Conditions: MV-4-11 cells, 48 hours
smiles,measurement,value
Nc1ncn([C@@H]2O[C@H](CO)[C@@H](O)[C@H]2O)c(=O)n1 [azacitidine],Fold change /veh FIZ1 (11724087_x_at),1.09
